Patent publication US7091202B2, “4-arylspirocycloalkyl-2-aminopyrimidine carboxamide KCNQ potassium channel modulators” (Bristol-Myers Squibb Company, priority 2004, dated 2006)

target: T1, hQ23 (HEK-293 cell line stably transfected with one of the members of the KCNQ family) (Homo sapiens, UniProt O43525+O43526); test: Thallium flux assay for KCNQ channel blockers (FLIPR, BTC dye); format: cell-based; settings: hQ23 cells, thallium flux
T1 construct: expressed in transfected cells; host or cells: HEK-293, stably transfected
T1 sequence (O43526 whole entry): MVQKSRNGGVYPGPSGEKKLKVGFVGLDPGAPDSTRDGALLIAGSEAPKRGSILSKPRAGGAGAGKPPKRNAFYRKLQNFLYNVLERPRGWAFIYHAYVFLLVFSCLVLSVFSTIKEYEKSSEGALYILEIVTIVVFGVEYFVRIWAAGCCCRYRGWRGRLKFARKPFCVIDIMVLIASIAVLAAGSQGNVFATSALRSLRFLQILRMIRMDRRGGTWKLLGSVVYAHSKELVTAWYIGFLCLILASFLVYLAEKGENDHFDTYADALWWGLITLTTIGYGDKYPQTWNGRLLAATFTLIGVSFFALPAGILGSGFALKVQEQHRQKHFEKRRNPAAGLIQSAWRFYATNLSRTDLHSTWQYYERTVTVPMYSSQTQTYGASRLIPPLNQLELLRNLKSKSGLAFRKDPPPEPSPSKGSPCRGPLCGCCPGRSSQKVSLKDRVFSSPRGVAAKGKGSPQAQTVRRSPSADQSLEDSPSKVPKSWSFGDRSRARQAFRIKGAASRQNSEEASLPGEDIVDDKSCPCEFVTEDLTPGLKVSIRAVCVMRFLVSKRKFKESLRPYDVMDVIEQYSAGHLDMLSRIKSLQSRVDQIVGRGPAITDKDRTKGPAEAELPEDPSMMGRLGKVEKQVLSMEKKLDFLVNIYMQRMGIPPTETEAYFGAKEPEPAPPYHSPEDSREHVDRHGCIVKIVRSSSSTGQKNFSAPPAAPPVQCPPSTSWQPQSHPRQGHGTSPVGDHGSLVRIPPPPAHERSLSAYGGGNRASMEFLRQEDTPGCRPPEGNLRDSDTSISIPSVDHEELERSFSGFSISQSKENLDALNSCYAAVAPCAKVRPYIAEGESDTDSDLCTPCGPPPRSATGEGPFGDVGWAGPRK
T1 sequence (O43525 whole entry): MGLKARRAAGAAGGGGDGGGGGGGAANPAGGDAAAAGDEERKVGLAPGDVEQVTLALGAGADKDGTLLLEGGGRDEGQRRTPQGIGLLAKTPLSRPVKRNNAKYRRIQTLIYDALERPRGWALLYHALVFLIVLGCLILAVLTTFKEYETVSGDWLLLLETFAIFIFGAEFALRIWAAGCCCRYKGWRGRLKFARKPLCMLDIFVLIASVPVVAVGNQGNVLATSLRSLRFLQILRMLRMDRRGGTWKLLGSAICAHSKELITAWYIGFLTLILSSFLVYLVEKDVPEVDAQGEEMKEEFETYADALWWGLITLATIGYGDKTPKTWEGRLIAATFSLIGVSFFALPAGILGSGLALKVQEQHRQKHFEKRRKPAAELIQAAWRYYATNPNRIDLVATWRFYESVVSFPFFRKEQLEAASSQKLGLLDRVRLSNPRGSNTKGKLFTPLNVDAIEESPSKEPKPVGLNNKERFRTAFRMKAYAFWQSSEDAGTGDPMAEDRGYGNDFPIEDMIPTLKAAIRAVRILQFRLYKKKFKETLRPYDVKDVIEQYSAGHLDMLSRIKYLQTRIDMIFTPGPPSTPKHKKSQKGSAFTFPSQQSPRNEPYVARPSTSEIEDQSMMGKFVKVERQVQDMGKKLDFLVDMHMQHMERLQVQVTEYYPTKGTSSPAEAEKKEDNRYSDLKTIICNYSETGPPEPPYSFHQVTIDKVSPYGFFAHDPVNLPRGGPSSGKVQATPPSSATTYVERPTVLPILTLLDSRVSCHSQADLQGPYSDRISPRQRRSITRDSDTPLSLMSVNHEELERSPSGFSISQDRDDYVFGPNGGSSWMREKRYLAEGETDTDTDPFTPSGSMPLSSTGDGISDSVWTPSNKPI
Method in brief: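 HEK-293 cells stably expressing a KCNQ member, loaded with BTC-AM (2 μM) in chloride-free buffer, pH 7.3; compounds added at 1% DMSO, then Tl2SO4 stimulus on FLIPR (488/540 nm, 60 s). Minimal active concentration set at ≥4 SD above negative control; IC50 from 10-point 1:3 series, single-site logistic fit versus the positive-control blocker.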

| EC50 | Structure (SMILES) |
| --- | --- |
| 0.01 µM | CC1CCN(c2ncc(C(=O)NCc3ccc(C(F)(F)F)cc3)c(C3(c4ccccc4)CCCC3)n2)CC1 [Example 138, 5-pyrimidinecarboxamide, 2-(4-methyl-1-piperidinyl)-4-(1-phenylcyclopentyl)-N-[[4-(trifluoromethyl)phenyl]methyl]-] |
| 0.01 µM | CC1CCN(c2ncc(C(=O)NCc3ccc(Cl)cc3Cl)c(C3(c4ccc(Cl)cc4)CCCC3)n2)CC1 [Example 181, 5-pyrimidinecarboxamide, 4-[1-(4-chlorophenyl)cyclopentyl]-N-[(2,4-dichlorophenyl)methyl]-2-(4-methyl-1-piperidinyl)-] |

same assay, conditions: hQ23 cells, thallium flux assay

| Structure (SMILES) | EC50 |
| --- | --- |
| CCC(C)Nc1ncc(C(=O)NCc2cc(F)cc(C(F)(F)F)c2)c(C2(c3ccc(F)cc3)CCCC2)n1 (stereo not drawn) [Example 279, 5-pyrimidinecarboxamide, 4-[1-(4-fluorophenyl)cyclopentyl]-N-[[3-fluoro-5-(trifluoromethyl)phenyl]methyl]-2-[(1-methylpropyl)amino]-] | 0.055 µM |
| CC1CCC(Nc2ncc(C(=O)NC(C)c3ccc(F)cc3)c(C3(c4ccc(F)cc4)CCCC3)n2)CC1 (stereo not drawn) [Example 281, 5-pyrimidinecarboxamide, 4-[1-(4-fluorophenyl)cyclopentyl]-N-[1-(4-fluorophenyl)ethyl]-2-[(4-methylcyclohexyl)amino]-] | 0.118 µM |
| CC1CCCN(c2ncc(C(=O)NC(C)c3ccc(F)cc3)c(C3(c4ccc(F)cc4)CCCC3)n2)C1 (stereo not drawn) [Example 284, 5-pyrimidinecarboxamide, 4-[1-(4-fluorophenyl)cyclopentyl]-N-[1-(4-fluorophenyl)ethyl]-2-(3-methyl-1-piperidinyl)-] | 0.078 µM |
| CC1CCN(c2ncc(C(=O)NC(C)c3ccc(F)cc3)c(C3(c4ccc(F)cc4)CCCC3)n2)CC1 (stereo not drawn) [Example 285, 5-pyrimidinecarboxamide, 4-[1-(4-fluorophenyl)cyclopentyl]-N-[1-(4-fluorophenyl)ethyl]-2-(4-methyl-1-piperidinyl)-] | 0.095 µM |
| CCC(C)Nc1ncc(C(=O)NC(C)c2ccc(F)cc2)c(C2(c3ccc(F)cc3)CCCC2)n1 (stereo not drawn) [Example 286, 5-pyrimidinecarboxamide, 4-[1-(4-fluorophenyl)cyclopentyl]-N-[1-(4-fluorophenyl)ethyl]-2-[(1-methylpropyl)amino]-] | 0.852 µM |

The next lines start with the values.

| EC50 | Structure (SMILES) |
| --- | --- |
| 0.017 µM | CC1CCN(c2ncc(C(=O)NCc3ccc(Cl)cc3Cl)c(C3(c4ccc(F)cc4)CCCC3)n2)CC1 [Example 263, 5-pyrimidinecarboxamide, N-[(2,4-dichlorophenyl)methyl]-4-[1-(4-fluorophenyl)cyclopentyl]-2-(4-methyl-1-piperidinyl)-] |
| 0.022 µM | CC1CCCN(c2ncc(C(=O)NCc3cc(F)cc(C(F)(F)F)c3)c(C3(c4ccc(F)cc4)CCCC3)n2)C1 (stereo not drawn) [Example 277, 5-pyrimidinecarboxamide, 4-[1-(4-fluorophenyl)cyclopentyl]-N-[[3-fluoro-5-(trifluoromethyl)phenyl]methyl]-2-(3-methyl-1-piperidinyl)-] |
| 0.01 µM | CC1CCN(c2ncc(C(=O)NCc3cc(F)cc(C(F)(F)F)c3)c(C3(c4ccc(F)cc4)CCCC3)n2)CC1 [Example 278, 5-pyrimidinecarboxamide, 4-[1-(4-fluorophenyl)cyclopentyl]-N-[[3-fluoro-5-(trifluoromethyl)phenyl]methyl]-2-(4-methyl-1-piperidinyl)-] |
| 0.06 µM | O=C(NCc1cc(F)cc(C(F)(F)F)c1)c1cnc(NC2CCCC2)nc1C1(c2ccc(F)cc2)CCCC1 [Example 280, 5-pyrimidinecarboxamide, 2-(cyclopentylamino)-4-[1-(4-fluorophenyl)cyclopentyl]-N-[[3-fluoro-5-(trifluoromethyl)phenyl]methyl]-] |
| 0.594 µM | CC(NC(=O)c1cnc(N2CCCC2)nc1C1(c2ccc(F)cc2)CCCC1)c1ccc(F)cc1 (stereo not drawn) [Example 282, 5-pyrimidinecarboxamide, 4-[1-(4-fluorophenyl)cyclopentyl]-N-[1-(4-fluorophenyl)ethyl]-2-(1-pyrrolidinyl)-] |
| 0.752 µM | CC(NC(=O)c1cnc(N2CCN(C)CC2)nc1C1(c2ccc(F)cc2)CCCC1)c1ccc(F)cc1 (stereo not drawn) [Example 283, 5-pyrimidinecarboxamide, 4-[1-(4-fluorophenyl)cyclopentyl]-N-[1-(4-fluorophenyl)ethyl]-2-(4-methyl-1-piperazinyl)-] |
| 0.573 µM | CC(NC(=O)c1cnc(NC2CCCC2)nc1C1(c2ccc(F)cc2)CCCC1)c1ccc(F)cc1 (stereo not drawn) [Example 287, 5-pyrimidinecarboxamide, 2-(cyclopentylamino)-4-[1-(4-fluorophenyl)cyclopentyl]-N-[1-(4-fluorophenyl)ethyl]-] |
| 0.075 µM | CC1CCN(c2ncc(C(=O)NCc3ccc(C(F)(F)F)cc3)c(C3(c4ccc(F)cc4)CCCC3)n2)CC1 [Example 288, 5-pyrimidinecarboxamide, 4-[1-(4-fluorophenyl)cyclopentyl]-2-(4-methyl-1-piperidinyl)-N-[[4-(trifluoromethyl)phenyl]methyl]-] |

target: mKCNQ2 (Mus musculus, UniProt Q9Z351); test: KCNQ patch-clamp: two-electrode voltage clamp on Xenopus laevis oocytes injected with mKCNQ2 cRNA; format: cell-based; settings: 5 mM TEA, measured at −40 mV membrane voltage, n=112
Sequence (Q9Z351 whole entry): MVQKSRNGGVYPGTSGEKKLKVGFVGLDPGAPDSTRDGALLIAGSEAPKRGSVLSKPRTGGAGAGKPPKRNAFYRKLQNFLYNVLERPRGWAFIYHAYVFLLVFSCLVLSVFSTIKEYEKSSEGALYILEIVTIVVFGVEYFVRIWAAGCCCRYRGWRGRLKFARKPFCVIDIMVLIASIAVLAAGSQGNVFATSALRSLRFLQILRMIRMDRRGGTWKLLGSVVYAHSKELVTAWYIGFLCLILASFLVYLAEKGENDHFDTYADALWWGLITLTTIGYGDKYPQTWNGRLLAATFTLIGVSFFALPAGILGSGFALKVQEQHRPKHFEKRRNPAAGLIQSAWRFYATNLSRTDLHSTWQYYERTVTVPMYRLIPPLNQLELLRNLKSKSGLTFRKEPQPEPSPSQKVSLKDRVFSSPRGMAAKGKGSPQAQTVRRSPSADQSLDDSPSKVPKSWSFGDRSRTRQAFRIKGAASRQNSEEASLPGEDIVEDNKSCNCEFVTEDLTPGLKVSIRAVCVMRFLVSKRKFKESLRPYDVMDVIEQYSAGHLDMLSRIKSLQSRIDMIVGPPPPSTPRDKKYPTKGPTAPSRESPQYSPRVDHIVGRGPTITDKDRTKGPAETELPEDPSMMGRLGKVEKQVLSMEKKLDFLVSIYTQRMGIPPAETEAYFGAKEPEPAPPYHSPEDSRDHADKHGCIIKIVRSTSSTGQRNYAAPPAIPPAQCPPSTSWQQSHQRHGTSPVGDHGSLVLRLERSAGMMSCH
Experimental: KCNQ Patch-clamp. Frog oocytes were surgically harvested from mature Xenopus laevis that had been anesthetized with 0.15% 3-aminobenzoic acid ethyl ester (tricaine). Only late stage V and VI oocytes were selected for cRNA injection, and the overlying follicle cell layers were enzymatically removed. Each oocyte was injected with approximately 60 ng of the mKCNQ2 cRNA. Following injection, oocytes were maintained at 17° C. in ND96 medium consisting of (in mM): NaCl, 90; KCl, 1.0; CaCl2, 1.0; MgCl2, 1.0; HEPES, 5.0; (pH 7.5) and supplemented with heat-inactivated horse serum (5%) and penicillin/streptomycin (5%).
Two-electrode voltage clamp techniques were used to record membrane currents; recording commenced 3–7 days following cRNA injection (Gribkoff, V. K., et al., Mol. Pharmacol. 1996, 50(1), 206–217). For recording and compound application, oocytes were placed in a recording chamber and incubated in Modified Barth's Solution (MBS) consisting of (in mM): NaCl, 88; NaHCO3, 2.4; KCI, 1.0; HEPES, 10; MgSO4, 0.82; Ca(NO3)2, 0.33; CaCl2, 0.41; (pH 7.5). Voltage-clamp protocols consisted of a series of 4 second duration depolarizing voltage steps from a holding potential of −90 mV to a maximal potential of +40 mV in 10 mV intervals. A family of outward currents was generated under control conditions for comparison with currents elicited in the presence of an experimental compound. Control or drug solutions were continually introduced into the recording chamber using a gravity-flow system with an in-line electronic valve array. A minimum of 5 oocytes was used for each drug concentration; drug concentrations ranged from 0.001 μM to 10 μM. During a single experiment, an oocyte was exposed to as many as three drug concentrations sequentially administered for 5 minutes each. All experiments ended with a 5 minute application of TEA (5 mM), a non-selective, but effective blocker of KCNQ channels. Typically, 5 mM TEA produced a maximal blockade of outward current when measured at the −40 mV membrane voltage (94.6+/−0.5% inhibition, n=112). In this manner, all drug effects could be presented as a percentage of TEA blockade, controlling for the variable levels of channel expression from oocyte to oocyte. Table 1 discloses data for representative examples. Data are expressed as percent inhibition relative to TEA blockade at a membrane voltage of −40 mV: A>50% TEA blockage at 100 nM, B>50% TEA blockage at 1 μM, C<50% TEA blockage at 1.0 μM.

| Structure (SMILES) | maximal blockade of outward current (% inhibition) |
| --- | --- |
| CC[N+](CC)(CC)CC [TEA, reference compound] | 94.6+/−0.5% |

same assay, conditions: percent inhibition relative to 5 mM TEA blockade at a membrane voltage of −40 mV; mKCNQ2 in oocytes

| Structure (SMILES) | Percent TEA blockage |
| --- | --- |
| CC1CCN(c2ncc(C(=O)NC(C)c3cccnc3)c(C3(c4ccccc4)CCCC3)n2)CC1 (stereo not drawn) [Example 16, 2-(4-Methyl-piperidin-1-yl)-4-(1-phenyl-cyclopentyl)-pyrimidine-5-carboxylic acid (1-pyridin-3-yl-ethyl)-amide] | A (A > 50% TEA blockage at 100 nM) |
| CC1CCN(c2ncc(C(=O)NCc3ccc(Cl)cc3Cl)c(C3(c4ccc(Cl)cc4)CCCC3)n2)CC1 [Example 181, 5-pyrimidinecarboxamide, 4-[1-(4-chlorophenyl)cyclopentyl]-N-[(2,4-dichlorophenyl)methyl]-2-(4-methyl-1-piperidinyl)-] | A (A > 50% TEA blockage at 100 nM) |

Continued, values first:

| Percent TEA blockage | Structure (SMILES) |
| --- | --- |
| B (B > 50% TEA blockage at 1 μM) | CC1CCN(c2ncc(C(=O)NCc3ccc(C(F)(F)F)cc3)c(C3(c4ccccc4)CCCC3)n2)CC1 [Example 138, 5-pyrimidinecarboxamide, 2-(4-methyl-1-piperidinyl)-4-(1-phenylcyclopentyl)-N-[[4-(trifluoromethyl)phenyl]methyl]-] |
| A (A > 50% TEA blockage at 100 nM) | CC1CCN(c2ncc(C(=O)NCc3ccc(Cl)cc3Cl)c(C3(c4ccc(F)cc4)CCCC3)n2)CC1 [Example 263, 5-pyrimidinecarboxamide, N-[(2,4-dichlorophenyl)methyl]-4-[1-(4-fluorophenyl)cyclopentyl]-2-(4-methyl-1-piperidinyl)-] |
| B (B > 50% TEA blockage at 1 μM) | O=C(NCc1ccc2c(c1)OCO2)c1cnc(N2CCCC2)nc1C1(c2ccccc2)CCCCC1 [Example 299, N-(1,3-benzodioxol-5-ylmethyl)-4-[1-phenylcyclohexyl]-2-(1-pyrrolidinyl)-5-pyrimidinecarboxamide] |
